This note sets out measurements from patent US20210228523A1, “MODULATORS OF SESTRIN-GATOR2 INTERACTION AND USES THEREOF” (Navitor Pharmaceuticals, Inc., priority 2017, published 2021).

The subject of one assay is mTORC1 signaling. The assay can be described thus: Cell-based mTORC1 activation (Method 2): western blot of phosphorylated S6 Kinase/4EBP1 in leucine-starved HEK293T cells. Particulars: concentration 100 μM, shift relative to DMSO control. Here is the method:
Briefly, 800,000 HEK293T cells were plated in each well of a 6-well plate in DMEM supplemented with 10% fetal bovine serum and antibiotics. […] Cells were then lysed, processed for SDS-PAGE and western blotting was performed with antibodies directed against the mTORC1 substrates phosphorylated S6 Kinase (Thr389) and phosphorylated 4EBP1 (Thr37/46) (Cell Signaling Technology) and loading controls (beta-actin, Santa Cruz Biotechnology) as described in Kang, S. A., et al. Science 341(6144): 364-374 (2013). The intensity of the bands corresponding to the phosphorylated substrates were then normalized to the actin band using the LI-COR® imaging platform.
(In general: In western blotting, separated proteins are transferred to a membrane and probed.)

The target of assay [1] is T1, GATOR2/Sestrin2 complexes (Homo sapiens, UniProt P58004).
T1 construct: endogenous in cells; host or cells: HEK293T cells stably expressing FLAG-WDR24 (lentiviral, pLJM60)
T1 sequence (P58004 1-480): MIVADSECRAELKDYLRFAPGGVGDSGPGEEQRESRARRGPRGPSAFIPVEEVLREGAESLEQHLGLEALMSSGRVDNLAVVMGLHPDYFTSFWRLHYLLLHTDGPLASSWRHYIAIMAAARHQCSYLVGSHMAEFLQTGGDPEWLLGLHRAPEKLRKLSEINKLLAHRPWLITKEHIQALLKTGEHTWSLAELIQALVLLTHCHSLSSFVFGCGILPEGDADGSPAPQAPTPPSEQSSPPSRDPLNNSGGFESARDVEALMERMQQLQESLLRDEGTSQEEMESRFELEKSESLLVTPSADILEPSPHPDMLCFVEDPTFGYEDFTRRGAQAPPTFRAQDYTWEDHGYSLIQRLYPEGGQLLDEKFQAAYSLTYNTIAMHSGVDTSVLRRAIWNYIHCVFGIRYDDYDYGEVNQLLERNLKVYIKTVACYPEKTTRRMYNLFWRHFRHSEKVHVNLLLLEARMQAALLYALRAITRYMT
The assay can be described thus: In vitro PPI assay (Method 1; Western blot assay): Sestrin2 bound to GATOR2 after compound addition to immunoprecipitated FLAG-WDR24 complex. The assay is classed as binding. Particulars: 25 μM, % activity relative to leucine (25 μM = 100%). From the text: This screening assay measured test compound activity in vitro on GATOR2/Sestrin2 complexes purified via immunoprecipitation of stably expressed FLAG-WDR24 from HEK293T cells. HEK293T cells (293 Ts) were engineered to stably express N-terminally tagged FLAG-WDR24 via transduction by lentivirus. Lentiviruses were produced by co-transfection of the lentiviral transfer vector pLJM60 with the […] into HEK-293T cells using the XTremeGene 9 transfection reagent (Roche Diagnostics). The media was changed 24 hours post-transfection to Dulbecco's Modified Eagle's media (DMEM) supplemented with 30% Inactivated Fetal Serum. The virus-containing supernatants were collected 48 and 72 hours after transfection and passed through a 0.45 μm filter to eliminate cells. Target cells in 6-well tissue culture plates were infected in media containing 8 μg/mL polybrene and spin infections were performed by centrifugation at 2,200 rpm for 1 hour. Twenty-four hours after infection, the virus was removed and the cells selected with the appropriate antibiotic. Cells were then grown in DMEM supplemented with 10% fetal bovine serum and antibiotics.
Seventy-two hours later, cells were placed in standard RPMI media formulated with no amino acids and supplemented with 5 mM Glucose (−AA RPMI, US Biological Life Sciences) for 1 hour then subsequently lysed in lysis buffer (40 mM HEPES, 1% Triton, 10 mM sodium β-glycerophosphate, 10 mM sodium pyrophosphate, 2.5 mM MgCl2 and protease inhibitors). To isolate the FLAG-WDR24/endogenous-Sestrin2 complex, crude lysate (equivalent to 2-4 mg of total protein) in a volume of 1 ml was subjected to immunoprecipitation with 30 μl of anti-flag resin (SIGMA) for 2 hours at 4° C., washed twice in cold lysis buffer plus 0.5M NaCl and resuspended in 1 ml of cold cytosolic buffer (40 mM HEPES pH 7.4, 140 mM KCl, 10 mM NaCl, 2.5 mM MgCl2, 0.1% TritonX-100). […] After the incubation period, samples were centrifuged to pellet the FLAG-WDR24/endogenous-Sestrin2 complex bound to the anti-flag resin, the supernatant was completely removed and resin was resuspended in SDS-PAGE sample buffer and boiled for 5 minutes. Samples were then processed by SDS-PAGE and western blots were performed with anti-FLAG (SIGMA) and anti-Sestrin2 (Cell Signaling Technology) antibodies as described in L. Chantranupong, et al., Cell Reports 9:1-8 (2014).
The resulting western blots were scanned and band intensities corresponding to Sestrin2 and FLAG-WDR24 were quantified using the LI-COR® imaging platform. To determine the amount of Sestrin2 bound to GATOR2 for each condition, the band intensity for Sestrin2 was normalized to the band intensity of FLAG-WDR24. […]
72 hours later, cells were placed in standard RPMI media formulated with no amino acids and supplemented with 5 mM Glucose (−AA RPMI, USBiological Life Sciences) for 1 hour then subsequently lysed in lysis buffer (40 mM HEPES, 1% Triton, 10 mM Sodium Beta-Glycerophosphate, 10 mM Sodium Pyrophosphate, 2.5 mM MgCl2 and protease inhibitors). The Flag-WDR24/endogenous-Sestrin2 complex was isolated as follows: crude lysate (equivalent to 2-4 mg of total protein) in a volume of 1 ml was subjected to immunoprecipitation (IP) with 30 μl of anti-flag resin (SIGMA) for 2 hours at 4° C., washed twice in cold lysis buffer plus 0.5M NaCl and resuspended in 1 ml of cold cytosolic buffer (40 mM HEPES pH 7.4, 140 mM KCl, 10 mM NaCl, 2.5 mM MgCl2, 0.1% TritonX-100). Compounds were then added to each sample at a given concentration of 25 μM and incubated with rotation at 4° C. for 30 minutes. After the incubation period, samples were centrifuged to pellet the Flag-WDR24/endogenous-Sestrin2 complex bound to the anti-flag resin, the supernatant was completely removed and resin was resuspended in sodium dodecyl sulfate-polyacrylamide gel electrophoresis (SDS-PAGE) sample buffer and boiled for 5 minutes. […]

The next assay deals with mTORC1. Kind of assay: Western blot of pS6 in rat brain and selected peripheral organs. It is filed as in vivo. As to conditions: Example D; Leu 500 mg/kg oral; 1 hr post-dose. Here is the method:
Study Design: Thirty (30) male rats weighing between 175 and 200 g were randomized into 3 study groups (n=10), following a 5-day acclimation period. One hour following dosing rats were sacrificed by conscious decapitation, plasma, brain and selected peripheral tissues were harvested for compound level and WB analysis. Tissues were prepared for WB to quantitate the mTORC1 substrate pS6 as a measure of mTORC1 activity.
The dosing volume based on the weight of the animal (10 mL/kg) was administered by oral gavage. Test articles were prepared the day of dosing.
Tissues Preparations: One hour following dosing rats were sacrificed by conscious decapitation, plasma, brain and peripheral tissues were harvested and immediately frozen in liquid nitrogen. Tissues were thawed and homogenized for 1 min twice using MP homogenizer in Lysis Buffer (Cell lysis buffer: 1% Triton X-100, 50 mM HEPES pH 7.4, 100 mM NaCl, 2 mM EDTA, 10 mM Beta-glycerophosphate, 10 mM Sodium pyrophosphate, and 1 protease inhibitor tab per 50 mL fresh) at 4° C. Lysates were then sonicated on ice for 20 s at 50% amplitude. The protein concentration was determined by Bradford assay and all samples were mixed with loading buffer (50 mM Tris-HCl pH 6.8, 2% SDS, 5% glycerol, 5% β-mercaptoethanol and 0.01% Bromophenol blue) and stored at −20° C. until WB analysis.
Western Blot (WB) Analysis. Equal amounts of each sample (15 μg of total protein) were loaded and separated on NuPAGE 4-12% Bis-Tris gels and transferred to PVDF membrane (Immobilon-FL PVDF membrane, Millipore) using CAPS Buffer (10 mM 3-(Cyclohexylamino)-1-propanesulfonic acid, 12.5% Ethanol pH=10). After transfer, membranes were incubated for 1 hr at room temperature in Odyssey blocking buffer (Licor). After blocking, membranes were incubated at 4° C. overnight with primary antibodies. Primary antibodies used were rabbit anti-[…] (cell signaling; #5364) at 1:1000, mouse anti-GAPDH (Sigma; #G8795) at 1:1000 and mouse anti-a-tubulin (Sigma; #T5168) at 1:10000 in Odyssey blocking buffer. The next day, membranes were washed three times in 1×TBS-Tween (25 mM Tris, pH 7.4, 3.0 mM KCl, 140 mM NaCl and 0.05% Tween-20) and incubated with dye-coupled secondary antibodies (goat anti-mouse IRdye680, and goat anti-rabbit IRdye800 from LI-COR) at 1:20000 in Odyssey blocking buffer for 30 min then wash three times in IX TBS-Tween. Signals were quantified using the Odyssey Infrared Imaging System (LI-COR Bioscience). The resulting densitometric readings were used to generate a ratio of phopho-protein to a-tubulin or GAPDH. The resulting ratio was further normalized to vehicle treated control group.

For assay [2], the system named is point mutant form of Sestrin2 unable to bind leucine. The assay can be described thus: ILBA with Flag-tagged point mutant Sestrin2. The assay is classed as binding, human.
Experimental: In one version, the assay was performed with crude lysate generated from a human cell line after a 1-hour period of amino acid starvation (cells are lysed in 1% Triton, 10 mM beta-glycerol phosphate, 10 mM sodium pyrophosphate, 40 mM HEPES [pH 7.4], 150 mM NaCl and 2.5 mM MgCl2). […] After compound incubation, samples were subjected to immunoprecipitation with the CST anti-Sestrin2 antibody for 1.5 hours followed by a 30-minute incubation with protein-A sepharose as described in L. Chantranupong, et al., Cell Reports 9:1-8 (2014). The sepharose conjugated antibody-protein complex was precipitated via centrifugation and the flow-through was subjected to a second round of immunoprecipitation with a rabbit polyclonal anti-Sestrin2 antibody (Protein Tech, #10795-1-AP) to determine that total Sestrin2 protein levels between samples were equal. SDS-PAGE was performed with the immunoprecipitation samples followed by western-blot with the mouse monoclonal anti-Sestrin2 antibody from SIGMA (cat #WH0083667M3).
This assay was also performed in cultured human cells over-expressing Sestrin2 N-terminally fused to a Flag tag. In this version of the assay, the procedure remained the same, but immunoblotting was performed with a mouse anti-Flag antibody (#F3165, SIGMA).

With `COC(=O)[C@@H](N)CC(C)C` [Compound I-168], the “Cell-Based mTORC1 Activation” value in the assay on mTORC1 signaling is listed as “D to E”. As for `C[C@H](CC(N)C(=O)O)C(F)(F)F` (stereo in doubt) [Compound I-167, (2R,4R)-2-amino-5,5,5-trifluoro-4-methylpentanoic Acid], the “Activity of Leucine: % Activity” value in assay [1] is “A (a % activity relative to leucine of ≥40%)”. The “Cell-Based mTORC1 Activation” value in the assay on mTORC1 signaling is given as “D to F”.

As to `NC(CCCC(F)(F)F)C(=O)O` (stereo not shown) [Compound I-42], the “Activity of Leucine: % Activity” value in assay [1] is “A (a % activity relative to leucine of ≥40%)”. Moreover, the “Cell-Based mTORC1 Activation” value with mTORC1 signaling is “D to F”. For `CC(C)(C)C[C@H](N)C(=O)O` [Compound I-43] the same measures were “A (a % activity relative to leucine of ≥40%)” and “D to E”. Take `CC(C)C[C@H](N)C(=O)O` [Leu, Leucine, reference compound]: the “pS6 levels in rat brain” value with mTORC1 is recorded as “no activation was observed”. On to `N[C@@H](CC1CCC1)C(=O)O` [Compound I-37], for which the “Activity of Leucine: % Activity” value in assay [1] is given as “A (a % activity relative to leucine of ≥40%)”. Also, the “Cell-Based mTORC1 Activation” value with mTORC1 signaling is on record as “E to F”. Take `CC(C)(C)C[C@H](N)C(=O)O` [γ-methylleucine]: in assay [2], the “decrease in affinity of the CST antibody upon ligand binding” value was “not observed”.

As for `CC(C)C[C@H](NC(=O)C(C)C)C(=O)O` [Compound I-16, (S)-2-isobutyramido-4-methylpentanoic Acid], the “Activity of Leucine: % Activity” value in assay [1] is “C (a % activity relative to leucine of between -40 and 40%)”. In the case of `N[C@@H](CC1CC1)C(=O)O` [Compound I-35], in assay [1], the “Activity of Leucine: % Activity” value is recorded as “A (a % activity relative to leucine of ≥40%)”. Same read-out and setting: in the case of `CC(C)C[C@@H](C(=O)O)N(C)C` [Compound I-1, (S)-2-(dimethylamino)-4-methylpentanoic Acid] it was “B (a % activity relative to leucine of ≤−40%)”; in that of `CC(C)C[C@](C)(N)C(=O)O` [Compound I-32], “A (a % activity relative to leucine of ≥40%)”.

For `CC(C)[C@H](N)C(=O)O` [Compound I-28], in assay [1], the “Activity of Leucine: % Activity” value was “C (a % activity relative to leucine of between -40 and 40%)”.

For the compound `CC(C)C[C@H](N)C(=O)N1CCCC[C@@H]1C` [Compound I-153], in assay [1], the “Activity of Leucine: % Activity” value is “C (a % activity relative to leucine of between -40 and 40%)”.

For the compound `CC(C)C[C@@H](N)B1OC(C)(C)C(C)(C)O1` [Compound I-10], in assay [1], the “Activity of Leucine: % Activity” value was “C (a % activity relative to leucine of between -40 and 40%)”.

Consider `CN[C@@H](CC(C)(C)C)C(N)=O` [Compound I-49], for which the “Activity of Leucine: % Activity” value in assay [1] is “C (a % activity relative to leucine of between -40 and 40%)”. As for `CC(C)C[C@H](N)C(=O)Nc1ccccc1` [Compound I-20, (S)-2-amino-4-methyl-N-phenylpentanamide], the “Activity of Leucine: % Activity” value in assay [1] is “C (a % activity relative to leucine of between -40 and 40%)”.

With `CC(C)C[C@H](N)C(N)=O.Cl` [Compound I-23], the “Activity of Leucine: % Activity” value in assay [1] was “C (a % activity relative to leucine of between -40 and 40%)”. The “Cell-Based mTORC1 Activation” value with mTORC1 signaling was “D to F”. For `N[C@H](CC1CCCC1)C(=O)O` [Compound I-40], the “Activity of Leucine: % Activity” value in assay [1] is “A (a % activity relative to leucine of ≥40%)”. Same read-out and setting: in the case of `N[C@@H](CC(C(F)(F)F)C(F)(F)F)C(=O)O` [Compound I-164, (S)-2-Amino-5,5,5-trifluoro-4-(trifluoromethyl)pentanoic Acid] it was “A (a % activity relative to leucine of ≥40%)”. Still for that read-out and setting: to `CC(C[C@H](N)C(=O)O)C(F)(F)F` (stereo in doubt) [Compound I-145, (2S,4R)-2-amino-5,5,5-trifluoro-4-methylpentanoic Acid] belongs “A (a % activity relative to leucine of ≥40%)”.
